Test results reported in patent US7470658B2, “Methods for inhibiting tumor metastasis, and peptides useful therefor” (Burnham Institute for Medical Research, priority 1999, dated 2008).
Values belong to the compound of their own block, whether it stands above or below them.

How the values were obtained:
E-selectin:IgG = conditions: comparison value for the heptapeptides; read-out: IC50 by ELISA binding assay using biotinylated sLe^a-PAA and E-selectin:IgG; cited from earlier work
E-selectin = experiment: Inhibition of binding between sLe^x-PAA-biotin and E-selectin:IgG by phage or peptides (ELISA); conditions: synthetic peptides (FIG. 1E); read-out: half inhibition value (IC50) of binding between sLe^x and E-selectin
Method: The inhibition of binding between sLe^x and E-selectin:IgG by phage or peptides was assayed by adding five hundred ng of polymeric sLe^x (sLe^x-PAA-biotin, GlycoTech, Rocksville, Md.) to wells in the presence or absence of phage or peptide. After incubating at room temperature for 1 hour, wells were washed with TBS containing CaCl2, and sLe^x-PAA-biotin bound to each selectin was determined using the peroxidase conjugated avidin and peroxidase substrate ABTS (Pierce, Rockford, Ill.). The OD405 was read in an ELISA reader. The synthetic peptides used were linear IELLQAR (SEQ ID NO:7), cyclic CIELLQARC (SEQ ID NO:13) (cysteins linked by disulfide bonds are underlined), and IELLQAR (SEQ ID NO:7) multivalent (Fmoc eight branch), which was synthesized by AnaSpec, Inc. (San Jose, Calif.).

mouse B16 melanoma cells = experiment: In vivo lung metastasis of B16 melanoma cells transfected with fucosyltransferase-III; conditions: peptide 500 mg/100 ml/mouse i.v. 20 minutes before 2×10^5 cells; foci counted after 3 weeks (FIG. 2B)
Method: (§1) The effect of IELLQAR (SEQ ID NO:7) phage and peptides on E-selectin mediated tumor metastasis was examined using mouse B16 melanoma cells or human melanoma MeWo cells transfected with fucosyltransferase-III, an enzyme which synthesizes sLe^x, as described in Kukowska-Latallo et al., Genes & Develop., 4:1288-1303 (1990). […] To test whether the heptapeptide sequence IELLQAR (SEQ ID NO:7) could inhibit metastasis in vivo, mice were injected with IELLQAR (SEQ ID NO:7) phage and with B16 cells through a tail vein and assayed for the presence of metastatic foci.
(§2) Phage (1×10^8 transducing units/100 ml/mouse) or peptide (500 mg/100 ml/mouse), each of which was equivalent to an amount 100 times the concentration required to inhibit binding between HL-60 to E-selectin determined by the in vitro assay described above in Example II (FIG. 1F), were injected intravenously into female mice (C57 black) that were 5-6 weeks old. The control phage lacks a consensus heptapeptide. The control peptide used in these experiments is MAPS alanine. After 20 minutes, metastatic tumor cells (2×10^5 cells) were administered through a tail vein. After 3 weeks, the numbers of metastatic foci appearing in the lung were counted.

[1] = test system: human melanoma MeWo cells; experiment: In vivo lung metastasis of human melanoma MeWo cells transfected with fucosyltransferase-III; conditions: peptide 500 mg/100 ml/mouse i.v. 20 minutes before cells; after 3 weeks (FIG. 2C)
Method: as §1, §2

[2] = test system: human lung carcinoma HAL-8 cells; experiment: In vivo lung metastasis of human lung carcinoma HAL-8 cells; parameters: species or system mouse; conditions: peptide pre-treatment i.v.
Method: as §2
The effect of IELLQAR (SEQ ID NO:7) peptide was assayed in the same manner described above.

[3] = test system: vascular endothelial cells of the lung; experiment: Mouse lung histochemical analysis after intravenous injection of biotinylated peptide; format: in vivo; conditions: i.v. injection, one hour, peroxidase conjugated avidin
From the text: Control peptide corresponding to MAPS alanine and IELLQAR (SEQ ID NO:7) peptide were biotinylated with biotin succinamide (Sigma, St. Louis, Mo.) and injected intravenously into mice. One hour after injection, mice were sacrificed, and tissues were examined histochemically using peroxidase conjugated avidin (Cappel, West Chester, Pa.) by the peroxidase method (Vectastatin ABC kit, Vector, Burlingame, Calif.).

[4] = test system: B16 melanoma cells in the lung; experiment: Immunohistochemistry of B16 melanoma cells in the lung (anti-melanoma HMB45); format: in vivo, mouse; conditions: pre-treated mice, one hour after administration of B16 cells
Method: Next, the immunohistochemistry in the mouse lung of melanoma cells injected intravenously was assayed. Mice were injected intravenously with either control phage, IELLQAR (SEQ ID NO:7) phage, control peptide, or IELLQAR (SEQ ID NO:7) peptide, followed by injection with B16 melanoma cells. One hour after administering B16 melanoma cells, the lungs were fixed in 4% paraformaldehyde and paraffin sections were prepared. The melanoma cells in the lung were visualized by immunostaining using anti-melanoma HMB45 mouse monoclonal IgG1 antibody (DAKO, Carpinteria, Calif.) by the peroxidase method (Vectastatin ABC kit, Vector, Burlingame, Calif.).

E-selectin, sequence (P16581 22-175 limits assumed): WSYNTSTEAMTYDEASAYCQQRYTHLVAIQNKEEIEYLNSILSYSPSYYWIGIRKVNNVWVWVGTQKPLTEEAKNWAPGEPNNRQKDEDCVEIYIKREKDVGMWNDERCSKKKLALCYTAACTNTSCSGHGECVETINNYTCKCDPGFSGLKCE

Compound: CC(=O)N[C@H]1[C@H](O[C@H]2[C@@H](O)[C@@H](CO)OC(O)[C@@H]2O)O[C@H](CO)[C@@H](O[C@@H]2O[C@H](CO)[C@H](O)[C@H](O[C@]3(C(=O)O)C[C@H](O)[C@@H](NC(C)=O)[C@H]([C@H](O)[C@H](O)CO)O3)[C@H]2O)[C@@H]1O[C@@H]1O[C@@H](C)[C@@H](O)[C@@H](O)[C@@H]1O (some centres unmarked) [sLe^x oligosaccharide, NeuNAcα2→3Galβ1→4(Fucα1→3)GlcNAcβ1→3Gal]
IC50 (E-selectin:IgG): 550 µM

IC50 (E-selectin): 10 µM
Compound: IELLQAR (SEQ ID NO:7) multivalent (Fmoc eight branch) [multivalent IELLQAR peptide, IELLQAR multivalent peptide, Fmoc eight branch MAPS, synthesized by AnaSpec]
metastasis of B16 melanoma to the lung, peptide pre-treatment (mouse B16 melanoma cells): effective in preventing metastasis
metastases of human melanoma MeWo cells to the lung [1]: inhibited efficiently
metastases of human lung carcinoma HAL-8 cells to the lung [2]: inhibited efficiently

Compound: IELLQAR [IELLQAR peptide, synthetic IELLQAR peptide injected into mice]
staining of biotinylated peptide on lung vascular endothelium [3]: detected on the vascular surface epithelium of the lung
state of B16 melanoma cells in lung tissue sections [4]: non-adherent and appeared apoptotic

IC50 (E-selectin): 200 µM
Compound: IELLQAR [linear heptapeptide]
